This note sets out measurements from patent US20180118682A1, “PHARMACEUTICAL COMPOSITION CONTAINING A TRYPTOPHAN DERIVATIVE” (Ramot at Tel-Aviv University Ltd., priority 2010, published 2018).

For orientation: solubility means the dissolved amount per volume that the medium holds. In general, thermodynamic solubility refers to the concentration in solution at equilibrium with solid. Broadly, the logP is the decadic logarithm of the partition coefficient of the neutral form, usually between octanol and water.

Data set [1] concerns microorganisms (e.g. bacteria and fungi). Nature of the data set: microbial preservation of ophthalmic formulations according to European and US pharmacopeia standards. The format is cell-based. To be noted: European standards (Pharmacopeia 7.0) and US-Pharmacopeia. The source says:
It can be particularly difficult to preserve formulations against microorganisms (e.g. bacteria and fungi), if the formulation contains a cyclodextrin derivative.
From different tests it can be seen that a sufficient microbial preservation of ophthalmic formulations is not possible with benzalkonium chloride, cetrimide and chlorhexidine according to the European standards (Pharmacopeia 7.0) and US standards (US-Pharmacopeia).

Data set [2] can be described thus: aqueous solubility of compound (A) as a function of pH (UV-spectroscopy). The format is physicochemical. To be noted: for solubility: aqueous media, aqueous buffer, R-enantiomer used. How it is done:
At acidic conditions, the solubility of the compound (A) is higher.
At alkaline pH-values, the solubility of the compound (A) is also better.
The solubility of the R-enantiomer of compound (A) was determined as a function of the pH-value by using UV-spectroscopy to quantify the concentration of the compound in a series of aqueous media.

The nature of data set [3]: equilibrium solubility in citrate buffer saline pH6 with cyclodextrins (shake flask method). The format is physicochemical. To be noted: citrate buffer saline with cyclodextrin, pH 6, aqueous with cosolvent or surfactant or cyclodextrin, thermodynamic from solid, read-out: Solubility of compound (A). How it is done: The equilibrium solubility of compound (A) was tested in a citrate buffer saline at pH6 in presence of different cyclodextrins by the shake flask method.

Data set [4] can be described thus: equilibrium solubility in water at 20 °C with varying cyclodextrin content. The format is physicochemical. To be noted: thermodynamic from solid. How it is done: For testing the influence of the cyclodextrin content in ophthalmic formulations, the solubility of Compound (A) was tested.
Data set [5] in a line: octanol/water partition coefficient log P, pH-metric method (OECD draft guideline 122). The format is physicochemical. To be noted: titrated pH 1.9 to 10.9, 1.3 to 1.9 mM, various octanol/water ratios. The text has this:
The octanol/water partition coefficient log P of the compounds of the invention can be determined by accepted standard methods known to the person skilled in the art, such as OECD (1995), Test No. 107: Partition Coefficient (n-octanol/water): Shake Flask Method, OECD Guidelines for the Testing of Chemicals, Section 1: Physical-Chemical properties, OECD Publishing. doi: 10.1787/9789264069626-en.
The log P value may be determined according to the draft OECD guideline OECD (2000), OECD Draft guideline for the Testing of Chemicals: 122 Partition Coefficient (n-Octanol/Water): pH-Metric Method for Ionisable Substances. For Example, log P of compound (A) was investigated using OECD (2000) OECD Draft guideline for the Testing of Chemicals: 122. The sample was titrated in two triple titrations from pH 1.9 to pH 10.9 at concentrations of 1.3 to 1.9 mM in various ratios of octanol/water.

In data set [6] the test system is retinal ganglion cell (RGC) apoptosis. Nature of the data set: rat glaucoma model (chronic ophthalmic hypertension), RGC apoptosis. To be noted: low doses, intravitreal; compared to vehicle; 3 and 6 weeks after OHT induction. The format is in vivo, male Dark Aguti rat. How it is done: In a male Dark Aguti rat model, glaucoma is produced by injection of hypertonic saline into episcleral veins of one eye to induce increased ophthalmic pressure (chronic ophthalmic hypertension), while the opposite eye serves as a control. In treatment groups, various doses of compound (A) of the instant invention are injected intravitreally (in […] volume) at the time of glaucoma induction and in some groups the administration continues for following 7 days to see whether such extended treatment results in increased efficacy.
The extent of retinal ganglion cell (RGC) apoptosis at 3 weeks and 6 weeks after chronic ophthalmic hypertension (OHT) induction is assessed in each animal by dynamic confocal scanning laser ophthalmoscopy and fluorescent-labeled Annexin V.
Animals are sacrificed after 3 and 6 weeks and their eyes are enucleated and fixed in 4% para-formaldehyde overnight. Afterwards, retinas are separated for assessing apoptosis related changes, for example visualized with FITC Annexin V kit (BD Biosciences, Franklin Laker (USA).

The nature of data set [7]: compatibility with ophthalmic excipients. To be noted: aqueous solutions at pH 5.5. The format is physicochemical. The source says: In the further series of tests, the compatibility of the compound (A) with other typical ophthalmic excipients was investigated.
Data set [8] has as its system Candida albicans. Nature of the data set: preservation of ophthalmic formulation against Candida albicans. The class given is cell-based. The source says:
(§1) For testing of the long term preservation of the ophthalmic formulations with metal-containing preservatives, the pharmaceutical compositions VI of example 4 was modified by adding thiomersal in a concentration of 0.01% by weight in the aqueous formulation.

The test system of data set [9] is Aspergillus niger. Nature of the data set: preservation of ophthalmic formulation against Aspergillus niger. The format is cell-based.
From the text: as §1

Data set [10] concerns Pseudomonas aeruginosa. Nature of the data set: preservation of ophthalmic formulation against Pseudomonas aeruginosa. The class given is cell-based.
From the text: as §1

For data set [11], the system named is Staphylococcus aureus. In words: preservation of ophthalmic formulation against Staphylococcus aureus. The class given is cell-based.
From the text: as §1

Where [12] appears, read: 0.001 to 0.01% by weight in the aqueous formulation.
Setting [13] is: composition VI with thiomersal 0.01% by weight, after 28 days.

In brackets after ≈: the same amount, converted by molar mass. Some results are limits rather than exact numbers.

`[H]/N=C(\N/C(=N/[H])NCCCCCCNC(=N)NC(=N)Nc1ccc(Cl)cc1)Nc1ccc(Cl)cc1` [chlorhexidine]: the “sufficient microbial preservation of ophthalmic formulations” value (“sufficient microbial preservation” below) in data set [1] is recorded as “not possible”.
In the case of `CC(C)(NC(=O)C(N)Cc1c[nH]c2ccccc12)C(=O)O` (stereo not drawn) [compound (A), 2-[2-Amino-3-(1H-indol-3-yl)-propionylamino]-2-methyl-propionic acid], the solubility in data set [2] (pH 4.6) is ~14 mg/mL (≈ 48.4 mM); in data set [2] (pH 6) it was ~10 mg/mL (≈ 34.6 mM); in data set [2] (pH 7), ~10 mg/mL (≈ 34.6 mM); in [2] (pH 7.2) it was ~14 mg/mL (≈ 48.4 mM); in data set [3] (100 mg/ml ACD (α-Cyclodextrin, Fluka)) it was 12.7 mg/mL (≈ 43.9 mM); in data set [3] (110 mg/ml HPBCD (Kleptose HPB, Roquette)) it was 27.9 mg/mL (≈ 96.4 mM). Further, the solubility came to 16.2 mg/mL (≈ 56 mM) in [3] (110 mg/ml HPGCD (Cavasol W8 HP Pharma, ISP)) and 28.7 mg/mL (≈ 99.2 mM) in data set [3] (110 mg/ml MBCD (Kleptose Crysmeb, Roquette)). Besides, the “solubility (in words)” value in [2] (at acidic conditions) was “higher”; in data set [2] (at alkaline pH-values), “better”; in data set [2] (from pH 4.5 to 7) it was “particularly low”. Moreover, the thermodynamic solubility in data set [4] (water without cyclodextrin) stood at 11.6 mg/mL (≈ 40.1 mM); in data set [4] (water with cyclodextrin (HPBCD), aqueous with cosolvent or surfactant or cyclodextrin, water containing 65 mg/ml cyclodextrin (HPBCD)), 20.2 mg/mL; in data set [4] (water with cyclodextrin, aqueous with cosolvent or surfactant or cyclodextrin, water containing 165 mg/ml cyclodextrin), 41.2 mg/mL. Besides, in [5], the lipophilicity (logP) is < -1. In addition, the RGC apoptosis result in [6] was “strong decrease”. Further, the “compatibility with further components (F) (hypromellose, carbomer, Gellan gum, preservatives)” value in data set [7] is given as “no incompatibilities”.
Regarding `C/C=C/C=C/C(=O)O` [sorbic acid], the “preservation against Candida albicans” value in [8] (0.3% by weight instead of thiomersal in composition VI, after 14 days) is “insufficient preservation”.
`C[CH2][Hg][S]c1ccccc1C(=O)[O-].[Na+]` [thiomersal]: the “activity meeting the compendia requirements” value in data set [9], in [8], in data set [10] and in [11] was “sufficient activity” in each case. In addition, the duration of preservation in [9] (setting [12]), in data set [8] (setting [12]), in [10] (setting [12]) and in data set [11] (setting [12]) was ≥ 28 days throughout. In addition, the reduction of organism in data set [9] (setting [13]), in data set [8] (setting [13]), in [10] (setting [13]) and in data set [11] (setting [13]) was ≥ 5 log each time.
Consider benzalkonium chloride, for which the “sufficient microbial preservation” value in data set [1] was “not possible”.
Regarding cetrimide, the “sufficient microbial preservation” value in data set [1] was “not possible”.
